Assay results taken from paper PMC9785471, “Exploring Cryptococcus neoformans CYP51 and Its Cognate Reductase as a Drug Target” (Journal of Fungi, 2022).

Target: T1, CnCYP51 (lanosterol 14α-demethylase, CnCYP51-6×His) (Cryptococcus neoformans, UniProt J9VHT4)
T1 construct: gene CNAG_00040; full-length, C-terminal hexahistidine-tagged, codon-optimised, expressed in S. cerevisiae
Assay: Type II absorbance difference spectral titration of purified CYP51, Hill fit
Type: binding

T1 sequence (J9VHT4 entry or part of it): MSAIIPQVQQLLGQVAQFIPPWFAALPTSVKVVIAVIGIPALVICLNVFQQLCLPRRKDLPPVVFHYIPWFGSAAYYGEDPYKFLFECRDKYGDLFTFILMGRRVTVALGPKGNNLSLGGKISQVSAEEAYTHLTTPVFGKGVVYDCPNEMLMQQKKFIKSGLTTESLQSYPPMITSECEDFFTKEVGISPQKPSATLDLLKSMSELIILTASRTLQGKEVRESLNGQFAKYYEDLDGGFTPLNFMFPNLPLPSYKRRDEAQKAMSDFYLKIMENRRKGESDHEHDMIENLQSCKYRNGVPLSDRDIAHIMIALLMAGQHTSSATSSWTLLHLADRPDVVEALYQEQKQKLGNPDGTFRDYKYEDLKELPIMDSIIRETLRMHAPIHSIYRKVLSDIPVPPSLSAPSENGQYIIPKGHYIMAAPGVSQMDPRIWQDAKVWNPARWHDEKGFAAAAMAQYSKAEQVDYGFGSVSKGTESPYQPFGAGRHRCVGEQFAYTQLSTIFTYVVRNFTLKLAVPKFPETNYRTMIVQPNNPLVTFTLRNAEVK

Which Kd does the source give for CC[C@@H]([C@H](C)O)n1ncn(-c2ccc(N3CCN(c4ccc(OC[C@@H]5CO[C@@](Cn6cncn6)(c6ccc(F)cc6F)C5)cc4)CC3)cc2)c1=O [PCZ, Posaconazole] here?
Its Kd is 200 ± 10 nM.

How did the Kd turn out when C[C@@H](c1ncncc1F)[C@](O)(Cn1cncn1)c1ccc(F)cc1F [VCZ, Voriconazole] was run?
Its Kd is 390 ± 13 nM.
